{"source": "patent US11913075B2", "about": "“Methods and compositions for detecting and modulating an immunotherapy resistance gene signature in cancer” (The Broad Institute, Inc., priority 2017, dated 2024)", "key": {"[1]": {"tested_on": "IGR37 melanoma cell line (RB-sufficient)", "test": "scRNA-seq of IGR37 melanoma cell line before and after abemaciclib for 1 week", "type": "cell-based", "conditions": "IGR37, post-treatment with abemaciclib; 10% before treatment", "protocol": "(§1) Applicants performed scRNA-seq on these cell lines before and after treatment with abemaciclib for 1 week (FIG. 41).\n(§2) To test this hypothesis, Applicants studied the effect of abemaciclib on the immune resistance program in melanoma cell lines. […] Applicants profiled each cell line with scRNA-seq before and after treatment with abemaciclib for 1 week (FIGS. 49D-E), analyzing over 23,000 cells in these and follow-up conditions (below).\n(§3) For droplet-based scRNA-seq, experiments were performed on the 10× Genomics Chromium platform, with the Chromium Single Cell 3′ Library & Gel Bead Kit v2 and Chromium Single Cell 3′ Chip kit v2 according to the manufacturer's instructions in the Chromium Single Cell 3′ Reagents Kits V2 User Guide. Briefly, 6,000 cells were re suspended in PBS supplemented with 0.04% BSA and loaded to each channel. The cells were then partitioned into Gel Beads in Emulsion in the GemCode instrument, where cell lysis and barcoded reverse transcription of RNA occurred, followed by amplification, shearing and 5′ adaptor and sample index attachment."}, "[2]": {"tested_on": "UACC257 melanoma cell line (RB-sufficient)", "test": "scRNA-seq of UACC257 melanoma cell line before and after abemaciclib for 1 week", "type": "cell-based", "conditions": "UACC257, post treatment with abemaciclib; 10% prior to treatment", "protocol": "as §1, §2, §3"}}}
{"smiles": "CCN1CCN(Cc2ccc(Nc3ncc(F)c(-c4cc(F)c5nc(C)n(C(C)C)c5c4)n3)nc2)CC1", "note": "[abemaciclib]", "values": [{"measurement": "cells with exceptionally strong expression of the uICR signature / immune resistance program (\"immune resistant\" cells)", "setting": "[1]", "result": 2, "unit": "%"}, {"measurement": "cells with exceptionally strong expression of the immune resistance program (\"immune resistant\" cells)", "setting": "[2]", "result": 1, "unit": "%"}]}
